# Patent US20200261375A1, “Use Of (+)-2-Borneol In Preparation Of Drug For Promoting Upregulation Of Expression Of Sphingosine Kinase-1 And/Or BDNF” (SUZHOU PHARMAVAN CO, LTD., priority 2017, published 2020)
# Tests used:
# Type in all cases: in vivo
# [1] = system: mouse model of focal cerebral motor cortex ischemia; assay: Mouse model of focal motor cortex ischemia (photochemical), cylinder test; settings: 3.0, 1.5, 0.75 mg/kg tail vein injection, 14 administrations, Day 14, 28, 42 after ischemic injury
# Method: (§1) Long-term pharmacodynamic assay of (+)-2-borneol in a mouse model of focal motor cortex ischemia A mouse model of focal cerebral motor cortex ischemia was induced by photochemical method. Three dose groups were set for (+)-2-borneol, i.e. 3.0, 1.5, 0.75 mg/kg, respectively. Edaravone at a dose of 9 mg/kg was used as a positive control. A drug was administered once by tail vein injection 2 hours after cortex ischemia, and then administered every 24 hours, for a total of 14 administrations. A grid test was used to determine respectively the failure rate of forelimb on Day 14, Day 28 and Day 42 after ischemic injury; and a cylinder test was used to determine the motor asymmetry index of the affected forelimb and the contralateral forelimb on Day 14, Day 28 and Day 42 after ischemic injury to determine its effect on motor function. After the behavior measurements, 5 animals were randomly selected from each group and killed, and the brain was harvested for Golgi staining to determine the neuronal survival and dendritic richness in the penumbra area.
# [2] = system: brain-derived neurotrophic factor (BDNF); assay: Rat model of focal cerebral ischemia-reperfusion (MCAO), genome-wide expression profiling of brain tissue around the infarct area: BDNF; settings: 2 mg/kg once by tail vein injection 2 hours after ischemia-reperfusion, brain tissue around the infarct area 48 hours after reperfusion, relative to the sham-operated group
# Method: (§2) Rat model of focal cerebral ischemia-reperfusion A rat model of middle cerebral artery occlusion (MCAD)-induced cerebral ischemia-reperfusion was prepared by thread occlusion of the internal carotid artery. A drug was administered once by tail vein injection 2 hours after ischemia-reperfusion. One dose group was set for (+)-2-borneol, i.e. 2 mg/kg. 48 hours after the cerebral ischemia-reperfusion, about a soybean size of brain tissue around the infarct area was harvested, sent to CapitalBio Technology Inc., Beijing, and subjected to genome-wide expression profiling by using Affymetrix GeneChip Rat Genome 230 2.0 Array Affymetrix Rat (Latin: Rattus norvegicus) Genome 230 2.0 chip.
# [3] = system: sphingosine kinase-1 (Sphk1); assay: Rat model of focal cerebral ischemia-reperfusion (MCAO), genome-wide expression profiling of brain tissue around the infarct area: Sphk1; settings: 2 mg/kg once by tail vein injection 2 hours after ischemia-reperfusion, brain tissue around the infarct area 48 hours after reperfusion, relative to the sham-operated group / model group
# Method: as §2
# [4] = system: mouse model of focal cerebral motor cortex ischemia; assay: Mouse model of focal motor cortex ischemia (photochemical), Golgi staining of brain; settings: Golgi staining after the behavior measurements; 3.0, 1.5, 0.75 mg/kg tail vein injection, 14 administrations
# Method: as §1
# [5] = system: mouse model of focal cerebral motor cortex ischemia; assay: Mouse model of focal motor cortex ischemia (photochemical), grid test; settings: 3.0, 1.5, 0.75 mg/kg tail vein injection, Day 14, 28, 42 after ischemic injury
# Method: as §1
compound,measurement,setting,value
CC1(C)[C@@H]2CC[C@@]1(C)[C@@H](O)C2 [(+)-2-borneol],asymmetry index of both forelimbs,[1],significant decreases
same,brain-derived neurotrophic factor (BDNF) expression up-regulated,[2],2.67 fold
same,sphingosine kinase-1 (Sphk1) expression up-regulated,[3],2.64 fold
same,dendritic length around the ischemic area,[4],significant improvements
same,dendritic spine density around the ischemic area,[4],significant improvements
same,number of dendritic branches around the ischemic area,[4],significant improvements
same,motor function of mice with photochemically induced injury,[5]; 14 administrations every 24 hours,significantly improve
same,failure rate of the left forelimb (affected side),"[5]; grid test, 14 administrations",significant decreases
